In US20050043534A1, “Modulators of ceramidase and methods of used based thereon” (priority 2001, published 2005):
Several values for one entry are separate records, joined by “and”; a condition that tells them apart may be missing. Equal values may be shown once. Entries after “also recorded” stand apart in the source; their conditions may differ.

Molecular target: mitochondrial ceramidase (Rattus norvegicus, UniProt Q91XT9)
Assay: mitochondrial ceramidase (mt-CDase) activity, radioactive assay or HPLC assay
Format: biochemical
Conditions: for effect on mt-CDase activity (in words): concentrations as stated at the place; for inhibition at 50 µM: read-out: inhibition (maximal inhibition) of mt-CDase activity; for IC50 (50% inhibition of mt-CDase activity): substrate D-erythro-ceramide 0.625 mole %; for type of inhibition (double reciprocal analysis: Km increased, Vmax unchanged): varying D-erythro-ceramide concentration; for increase in ceramide hydrolysis: tested at 0-5 mole % (0-400 μM), [3H]-C16-ceramide 0.625 mole %; for inhibition of mt-CDase activity: inhibitor at 0.6 mole %; for IC50: substrate D-erythro-ceramide 50 μM; for extent of inhibition of ceramidase: sphingosine stereoisomers at higher concentrations (FIG. 4b)
Method: The enzymatic activity of mitochondrial ceramidase was determined by either one of the two following methods:
a. Radioactive assay: The mt-CDase activity was determined by measuring the release of radioactive fatty acid from tritiated ceramide ([^3H]-C16-Cer), labeled in the acyl chain. Briefly, organic solutions of ceramide and its analogues were initially mixed together, solvents were completely evaporated under nitrogen, then the dried lipids were dispersed in Triton-X 100 by sonication and vigorous vortexing. The reaction assay contained (in a final volume of 200 μl): enzyme (5-10 ng) and 10 nmoles of tritiated C16-ceramide (1×10^5 dpm) delivered in 100 μl of 1% Triton X-100 micelles in a glycine buffer pH 9.5 (200 mM).
b. HPLC-assay: The Mt-CDase activity was also determined by measuring the amount of sphingosine released. Basically the assay was initially the same as described above but using non-radioactive ceramide. The reaction was stopped with 800 μl of chloroform: methanol (2:1 v/v) mixture followed by the addition of phyto-sphingosine (0.5 nmoles) and dihydro-sphingosine (1 nmole) as internal standard and carrier, respectively. The reaction mix was then extracted with NaOH (50 μl, 1N), and the lower chloroform layer containing the sphingosine was further washed with water (100 μl) and dried. The released sphingosine was quantified as the ortho-phthaldehyde (OPA) derivatives as described (30). […] The solvent system was methyl alcohol: potassium phosphate buffer (5 mM), pH 7.0 (90:10 v/v) at a flow rate of 1 ml/min. […] Activity was determined relative to the phytosphingosine OPA peak.
The effects of various compounds of the invention which are stereochemical and structural analogues of ceramide and sphingosine on mt-CDase were investigated. […] Results were expressed as percent of the control ceramidase activity.

[1] = Table 1, ceramide analogues, hydrolysis of D-erythro-C16 or C18-ceramide at 0.625 mole % (50 μM)
[2] = inhibitor at 0.625 mole % (50 μM)
[3] = Table 2, sphingosine analogues, hydrolysis of D-erythro-ceramide at 0.625 mole % (50 μM)

Sequence of mitochondrial ceramidase (Q91XT9 whole entry): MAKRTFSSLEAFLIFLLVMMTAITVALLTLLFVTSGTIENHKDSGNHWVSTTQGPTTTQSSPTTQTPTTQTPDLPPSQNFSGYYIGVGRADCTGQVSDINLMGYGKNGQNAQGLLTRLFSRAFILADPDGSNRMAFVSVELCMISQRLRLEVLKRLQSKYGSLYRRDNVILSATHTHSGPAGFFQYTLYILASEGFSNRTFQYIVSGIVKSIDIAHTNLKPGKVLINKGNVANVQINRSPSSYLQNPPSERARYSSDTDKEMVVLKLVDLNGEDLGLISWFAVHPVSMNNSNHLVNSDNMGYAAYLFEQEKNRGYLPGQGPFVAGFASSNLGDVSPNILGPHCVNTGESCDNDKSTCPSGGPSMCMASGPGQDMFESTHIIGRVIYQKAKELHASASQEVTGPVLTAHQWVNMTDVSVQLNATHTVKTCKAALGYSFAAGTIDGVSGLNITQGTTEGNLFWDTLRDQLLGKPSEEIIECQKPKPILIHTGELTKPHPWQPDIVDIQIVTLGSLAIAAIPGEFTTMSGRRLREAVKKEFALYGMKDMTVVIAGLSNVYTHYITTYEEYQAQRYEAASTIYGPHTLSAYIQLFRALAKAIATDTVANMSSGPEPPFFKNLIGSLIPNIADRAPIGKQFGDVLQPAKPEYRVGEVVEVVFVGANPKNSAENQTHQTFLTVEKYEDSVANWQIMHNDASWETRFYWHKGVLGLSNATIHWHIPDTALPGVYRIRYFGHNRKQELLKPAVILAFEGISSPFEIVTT

Row | Estimated IC50 (mole %) [1] | IC50 (50% inhibition of mt-CDase activity) | effect on mt-CDase activity (in words) | Molecule | Estimated IC50 (mole %) [3] | further results
1 | 0.21 mole % | 0.21 mole % | – | CCCCCCCCCCCCC/C=C/[C@@H](O)[C@@H](CO)NC(=O)CCCCCCCCCCCCCCCCC [D-t-C18-Cer, D-threo-C18-ceramide] | – | IC50: 16.6 µM
2 | 0.26 mole % | 0.26 mole % | – | CCCCCCCCCCCCC/C=C/[C@H](O)[C@@H](CO)NC(=O)CCCCCCCCCCCCCCCCC [L-e-C18-Cer, L-erythro-C18-ceramide] | – | IC50: 20 µM; type of inhibition (double reciprocal analysis: Km increased, Vmax unchanged): competitive
3 | 0.11 mole % | 0.11 mole % | – | CCCCCCCCCCCCC/C=C/[C@H](O)[C@H](CO)NC(=O)CCCCCCCCCCCCCCCCC [L-t-C18-Cer, L-threo-C18-ceramide] | – | IC50: 8.8 µM
4 | no effect | – | – | CCCCCCCCCCCCC/C=C/[C@@H](O)[C@H](CO)N(C)C(=O)CCCCCCCCCCCCCCC [N-Me-C16-Cer, N-methyl-D-erythro-C16-ceramide] | – | effect on mt-CDase activity (in words) (listed as N-Me-Cer): loss of the interaction; effect on mt-CDase activity (in words) (listed as N-Me-ceramide): do not interact with the enzyme; effect on mt-CDase activity (in words) (listed as N-methyl-ceramide): did not affect ceramidase activity
5 | no effect | – | no significant effect | CCCCCCCCCCCCC/C=C\[C@@H](O)[C@H](CO)NC(=O)CCCCCCCCCCCCCCC [cis-D-e-C16-Cer, cis-D-erythro-C16-ceramide] | – | effect on mt-CDase activity (in words) (listed as cis D-erythro-ceramide): did not inhibit the enzyme; effect on mt-CDase activity (in words) (listed as cis-D-e-ceramide): do not interact with the enzyme
6 | – | – | no significant variation | CCCCCCCCCCCCCCCC(=O)O [palmitic acid, reference compound] | – | –

More lines, now with the values behind:

Row | Molecule | Estimated IC50 (mole %) [1] | IC50 (50% inhibition of mt-CDase activity) | effect on mt-CDase activity (in words) | Estimated IC50 (mole %) [3] | further results
7 | CCCCCCCCCCCCC/C=C/[C@@H](O)[C@H](COC)NC(=O)CCCCCCCCCCCCCCC [1-O-Me-C16-Cer, 1-O-methyl-D-erythro-C16-ceramide] | no effect | – | – | – | effect on mt-CDase activity (in words) (listed as 1-O-Me-ceramide): do not interact with the enzyme; effect on mt-CDase activity (in words) (listed as 1-O-methyl ceramide): no effect
8 | CCCCCCCCCCCCC/C=C/[C@@H](OC)[C@H](CO)NC(=O)CCCCCCCCCCCCCCC [3-O-Me-C16-Cer, 3-O-methyl-D-erythro-C16-ceramide] | no effect | – | – | – | effect on mt-CDase activity (in words) (listed as 3-O-Me-ceramide): do not interact with the enzyme; effect on mt-CDase activity (in words) (listed as 3-O-methyl ceramide): no effect
9 | CCCCCCCCCCCCC/C=C/C(=O)[C@H](CO)NC(=O)CCCCCCCCCCCCCCC [3-keto-C16-Cer, 3-keto-C16-ceramide] | 0.6 mole % | 0.60 mole % | – | – | hydrolysis by mt-CDase (substrate or not, in words): served as a substrate; inhibition at 50 µM [2]: 53%; type of inhibition (double reciprocal analysis: Km increased, Vmax unchanged): competitive substrate
10 | CCCCCCCCCCCCCC#CC(=O)[C@@H](N)CO [3-keto-deh-Sph, 3-keto-dehydrosphingosine] | – | – | weaker | weak | inhibition at 50 µM [2]: 15%
11 | CCCCCCCCCCCCCCCC(=O)C(N)CO (stereo not shown) [3-keto-dh-Sph, 3-keto-dihydrosphingosine] | – | 0.34 mole % | potent inhibitor | 0.2 mole % | inhibition (maximal inhibition) of mt-CDase activity [2]: 75%
12 | CCCCCCCCCCCCC/C=C/[C@@H](O)[C@H](COP(=O)(O)O)NC(=O)CCCCCCCCCCCCCCC [Cer-1-P, D-erythro-C16-ceramide-1-phosphate] | activator | – | do not interact with the enzyme | – | increase in ceramide hydrolysis: 220%
13 | CCCCCCCCCCCCC/C=C/[C@@H](O)[C@@H](N)COC [Compound 1-O-Me-Sph, 1-O-methyl-D-erythro-sphingosine] | – | – | weaker | weak | inhibition of mt-CDase activity: ~25%
14 | CCCCCCCCCCCCC/C=C/[C@@H](OC)[C@@H](N)CO [Compound 3-O-Me-Sph, 3-O-methyl-D-erythro-sphingosine] | – | – | – | no effect | inhibition of mt-CDase activity: no effect
15 | CCCCCCCCCCCCC/C=C/C(=O)[C@@H](N)CO [Compound 3-keto-Sph, 3-keto-sphingosine] | – | – | weaker; also recorded: significant loss of inhibition | weak | inhibition at 50 µM [2]: 35%
16 | CCCCCCCCCCCCC/C=C/[C@@H](O)[C@H](CO)NCCCCCCCCCCCCCCCCCC [Compound C18-Ceramine, N-stearyl-D-erythro-sphingosine] | – | – | – | 0.5 mole % | inhibition at 100 µM (inhibitor at 1.25 mole % (100 μM)): 75%; type of inhibition (double reciprocal analysis: Km increased, Vmax unchanged): competitive inhibitor
17 | CCCCCCCCCCCCC/C=C/[C@@H](O)[C@H](CO)NC(=O)CCCCCCCCCCCCCCCCC [D-e-C18-Cer, D-erythro-C18-ceramide, reference compound] | substrate | – | – | – | –
18 | CCCCCCCCCCCCC/C=C/[C@@H](O)[C@@H](N)CO [D-e-Sph, D-erythro-sphingosine, reference compound] | – | 0.04 mole % | – | 0.04 mole % | inhibition of mt-CDase activity: totally inhibited; inhibition at 50 µM [2]: 98%; IC50: 3.3 µM
19 | CCCCCCCCCCCCCC#C[C@@H](O)[C@@H](N)CO [D-e-deh-Sph, D-erythro-dehydrosphingosine] | – | 0.25 mole % | – | 0.25 mole % | inhibition at 50 µM [2]: 75%
20 | CCCCCCCCCCCCCCC[C@@H](O)[C@@H](N)CO [D-e-dh-Sph, D-erythro-dihydrosphingosine] | – | 0.20 mole % and 0.34 mole % | – | 0.34 mole % | –
21 | CCCCCCCCCCCCC/C=C/[C@@H](O)[C@H](N)CO [D-t-Sph, D-threo-sphingosine] | – | – | – | 0.11 mole % | extent of inhibition of ceramidase: 75%
22 | CCCCCCCCCCCCC/C=C/[C@H](O)[C@H](N)CO [L-e-Sph, L-erythro-sphingosine] | – | – | – | 0.09 mole % | extent of inhibition of ceramidase: 98%
23 | CCCCCCCCCCCCC/C=C/[C@H](O)[C@@H](N)CO [L-t-Sph, L-threo-sphingosine] | – | – | – | 0.14 mole % | extent of inhibition of ceramidase: 60%
24 | CCCCCCCCCCCCC/C=C/[C@@H](O)[C@H](CO)N(C)C [N,N-diMe-Sph, N,N-dimethyl-D-erythro-sphingosine] | – | – | weaker; also recorded: profound loss of activity | weak | maximal inhibition of mt-CDase (inhibitor at 2.5 mole %): 30%
25 | CCCCCCCCCCCCC/C=C/[C@@H](O)[C@H](CO)NC [N-Me-Sph, N-methyl-D-erythro-sphingosine] | – | 0.13 mole % | – | 0.13 mole % | inhibitory effect on mt-CDase (FIG. 6a, concentration not stated directly): 75%
26 | CCCCCCCCCCCCC/C=C/[C@@H](O)[C@@H](N)COP(=O)(O)O [Sph-1-P, D-erythro-sphingosine 1-phosphate] | – | – | – | activator | increase in ceramide hydrolysis: 180%
27 | CCCCCCCCCCCCC/C=C\[C@@H](O)[C@@H](N)CO [cis-D-e-Sph, cis-D-erythro-sphingosine] | – | – | weaker; also recorded: no effect; also recorded: weak inhibitor | weak | maximal inhibition of ceramide hydrolysis (at higher concentrations, greater than 2 mole %): 32%; inhibition at 50 µM [2]: 10%
28 | ceramide [reference compound] | – | – | – | – | Km of hydrolysis (ceramide as substrate): 1.3 mole %
29 | dihydroceramide [reference compound] | – | – | – | – | hydrolysis by mt-CDase (substrate or not, in words): significant loss of activity as a substrate
